# According to patent publication US10759791B2, “Mammalian and bacterial nitric oxide synthase inhibitors” (Northwestern University, priority 2014, dated 2020):
# “And” between values parts separate entries of the source, which are not always exact repeats. Identical values can stand only once. Marks after values point to notes of the source that are not given here.
# Assays:
# CYP2B6 = CYP2B6 (Homo sapiens (Human), UniProt P20813); assay: in vitro; conditions: microsomes, pH 7.4
# [1] = 37° C.
# CYP2D6 = CYP2D6 (Homo sapiens (Human), UniProt P10635); assay: CYP inhibition assay, human liver microsomes; conditions: pH 7.4
# CYP2D6, sequence (P10635 whole entry): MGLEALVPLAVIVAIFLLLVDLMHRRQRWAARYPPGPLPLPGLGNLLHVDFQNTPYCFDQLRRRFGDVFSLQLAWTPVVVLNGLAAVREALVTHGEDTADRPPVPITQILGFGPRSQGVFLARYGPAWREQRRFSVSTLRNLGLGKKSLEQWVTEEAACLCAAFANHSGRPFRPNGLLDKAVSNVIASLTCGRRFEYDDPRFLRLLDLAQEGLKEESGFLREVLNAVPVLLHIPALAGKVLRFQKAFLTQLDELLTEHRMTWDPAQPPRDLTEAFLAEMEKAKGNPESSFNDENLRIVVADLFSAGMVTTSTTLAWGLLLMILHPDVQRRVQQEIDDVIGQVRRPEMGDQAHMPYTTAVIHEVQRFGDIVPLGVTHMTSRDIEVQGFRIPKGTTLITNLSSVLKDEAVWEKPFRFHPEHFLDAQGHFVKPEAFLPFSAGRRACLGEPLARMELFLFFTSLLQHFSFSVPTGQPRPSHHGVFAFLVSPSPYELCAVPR
# in vitro [2] = conditions: human, microsomes, pH 7.4
# CYP2C9 = CYP2C9 (Homo sapiens (Human), UniProt P11712); assay: in vitro; conditions: microsomes, pH 7.4
# CYP2C9, sequence (P11712 whole entry): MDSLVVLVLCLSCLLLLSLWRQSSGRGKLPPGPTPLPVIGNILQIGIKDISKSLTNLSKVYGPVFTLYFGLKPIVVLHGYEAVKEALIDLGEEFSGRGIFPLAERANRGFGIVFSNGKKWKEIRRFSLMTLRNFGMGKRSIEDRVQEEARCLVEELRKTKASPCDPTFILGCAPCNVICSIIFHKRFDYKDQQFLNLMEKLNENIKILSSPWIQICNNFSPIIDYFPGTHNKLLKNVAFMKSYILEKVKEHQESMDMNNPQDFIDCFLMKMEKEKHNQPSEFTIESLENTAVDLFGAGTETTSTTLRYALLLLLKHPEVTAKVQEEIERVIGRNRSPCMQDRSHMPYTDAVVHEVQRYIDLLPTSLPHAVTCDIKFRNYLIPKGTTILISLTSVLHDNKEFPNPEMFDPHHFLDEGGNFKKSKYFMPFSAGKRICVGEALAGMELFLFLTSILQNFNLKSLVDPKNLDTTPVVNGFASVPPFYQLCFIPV
# in vitro [3] = conditions: human, pH 7.4
# CYP1A2 = CYP1A2 (Homo sapiens (Human), UniProt P05177); assay: CYP inhibition assay, human liver microsomes; conditions: human, microsomes, pH 7.4
# CYP1A2, sequence (P05177 whole entry): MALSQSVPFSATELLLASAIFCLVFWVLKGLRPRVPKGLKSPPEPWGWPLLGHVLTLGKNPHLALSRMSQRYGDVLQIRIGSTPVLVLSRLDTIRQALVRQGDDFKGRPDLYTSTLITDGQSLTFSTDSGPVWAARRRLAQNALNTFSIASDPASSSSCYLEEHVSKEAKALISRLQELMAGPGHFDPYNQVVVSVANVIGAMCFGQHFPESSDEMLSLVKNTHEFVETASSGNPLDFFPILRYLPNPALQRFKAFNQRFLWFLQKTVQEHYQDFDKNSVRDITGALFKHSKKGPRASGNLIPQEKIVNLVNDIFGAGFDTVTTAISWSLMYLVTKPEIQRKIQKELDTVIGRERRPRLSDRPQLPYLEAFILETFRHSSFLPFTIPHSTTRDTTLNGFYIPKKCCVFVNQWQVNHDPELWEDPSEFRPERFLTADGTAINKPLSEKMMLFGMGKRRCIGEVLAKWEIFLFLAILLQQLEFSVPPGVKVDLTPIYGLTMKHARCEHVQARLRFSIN
# CYP2C8 = CYP2C8 (Homo sapiens (Human), UniProt P10632); assay: in vitro; conditions: microsomes, pH 7.4
# CYP2C8, sequence (P10632 whole entry): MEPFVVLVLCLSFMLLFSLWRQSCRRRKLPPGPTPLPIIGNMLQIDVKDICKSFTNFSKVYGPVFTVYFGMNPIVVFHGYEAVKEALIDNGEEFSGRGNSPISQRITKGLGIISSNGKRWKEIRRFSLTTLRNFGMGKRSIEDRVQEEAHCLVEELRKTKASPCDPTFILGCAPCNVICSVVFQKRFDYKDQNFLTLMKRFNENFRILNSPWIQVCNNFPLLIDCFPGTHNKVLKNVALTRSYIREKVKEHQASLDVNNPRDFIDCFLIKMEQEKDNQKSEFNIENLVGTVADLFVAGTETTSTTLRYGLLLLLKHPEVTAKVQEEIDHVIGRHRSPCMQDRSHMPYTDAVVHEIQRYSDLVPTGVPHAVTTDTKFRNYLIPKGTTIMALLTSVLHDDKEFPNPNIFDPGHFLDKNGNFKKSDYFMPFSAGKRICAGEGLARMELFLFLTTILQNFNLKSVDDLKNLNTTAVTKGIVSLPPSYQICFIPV
# [4] = human, microsomes, 0 h, 1 μM, pH 7.4
smiles,measurement,setting,value
"CNCCCc1cncc(CCc2cc(C)cc(N)n2)c1 [Compound 14j, 4-Methyl-6-(2-(5-(3-(methylamino)propyl)pyridin-3-yl)ethyl)pyridin-2-amine]",inhibition at 10 µM,CYP2B6,8%
same,% compound remaining at 4 h,[1],90%
same,"inhibition at 10 min, 10 µM",CYP2D6,6%
same,half-life at 1 μM,in vitro [2],> 1 h
same,"inhibition at 10 min, 10 µM",CYP2C9,0%
same,"recovery at 4 h, 5 μM",in vitro [3],91%
same,"inhibition at 10 min, 10 µM",CYP1A2,9%
same,"% Remaining, 90 minutes (−NADPH)",1 μM,78^b % and 78%
same,"CLh, int",1 μM,10.4 mL/min/kg
same,"% Remaining, 90 minutes (Buffer)","1 μM, heat inactivated microsomes minus NADPH",95^b % and 95%
same,% of the compound lost,"1 μM, in 60 min in the absence of NADPH or in 90 min in the presence of NADPH",23%
same,"Percentage in HLM, Minus NADPH, 0 min",[4],100%
same,"Percentage in HLM, Plus NADPH, 0 min",[4],100%
same,"Percentage in HLM, Plus NADPH, 45 min","human, microsomes, […], 1 μM, pH 7.4",87%
same,"Percentage in HLM, Heat inactivated microsomes, 0 min",minus NADPH (buffer control),100%
same,inhibition at 10 µM,CYP2C8,2%
